Like-named read-outs stand apart in the source and are kept apart here.

One series deals with hCB2 (Homo sapiens, UniProt P34972). The experiment in a line: In vitro binding assay using hCB2-CHO membranes, [3H]-CP-55,940 displacement (Protocol IV). The conditions noted are these: 1 h, read-out: % Displacement Protocol IV. More on the design: expressed in transfected cells; host or cells: CHO (hCB2-CHO, generated in-house). In short, it runs like this:
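Displacement of [3H]-CP-55,940 (0.75 nM) from membranes of CHO cells expressing human CB2 (25-50 μg) was measured in Tris-BSA buffer pH 7.4 with 5 mM MgCl2, 1 mM EDTA, 0.1% BSA, 1 h at 30 °C. Test compounds were at 300 nM final; nonspecific binding defined with 0.5 μM CP-55,940. Values are % displacement of specific binding.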

Series [1] deals with T1, CB1 (Rattus norvegicus, UniProt P20272). The experiment in a line: GTPγS binding assay, CB1 functional assay in rat cerebellar membrane (Protocol VIII). Format: biochemical. More on the design: 10 μg rat cerebellum membrane; from tissue; host or cells: rat cerebellum membrane, prepared in-house. Here is the method:
VIII. Protocol for GTPγS Binding Assay (CB1 Functional Assay in Rat Cerebellar Membrane)
In this GTPγS binding assay, total, basal and nonspecific binding were determined. See Griffin G., Atkinson P. J., Showalter V. M., Martin B. R. and Abood M. E., “Evaluation of cannabinoid receptor agonists and antagonists using the Guanosine-5′-O-(3-(^35S)thio)-triphosphate binding assay in rat cerebellar membranes,” J Pharmacol Exp Ther 285: 553-560, 1998. Three wells for total binding, three wells for basal binding, and three wells for nonspecific binding at 0.2 nM concentration of radioligand were used. Basal binding was defined by 50 μM GDP (Guanosine diphosphate) and non-specific binding was defined by 10 μM unlabeled GTPγS. 10 μg rat cerebellum membrane, 50 μM of GDP, WIN-55212-2 or test compound (1 μM or 300 nM), 10 μM unlabeled GTPγs, and 0.2 nM of [^35S]GTPγS were added into a 96 well plate and the final volume of the reaction mixture was made with GTPγS buffer (50 mM Tris, 3 mM anhydrous MgCl2, 0.2 mM EGTA and 100 mM NaCl pH 7.4) to 200 μl. The plates were incubated at 30° C. for 1 hour. Then the reaction was stopped by filtration using a Whatman GF/B-96 microfilter plate. Three washings were given using Tris-HCl. The radioactivity bound to the brain membrane was retained on the filter disks to which scintillation fluid was added (Microscint PS). Then plates were read for radioactive counts using a Beta Liquid Scintillation Counter (Packard Instruments, Ill., USA).
The rat cerebellar brain membrane was prepared as follow: • 1. Sacrifice the rat and take out the whole brain and separate cerebellum as fast as possible and keep it on ice. • 2. Take the weight of the cerebellum and homogenize in 30 ml of homogenizing buffer (50 mM Tris-HCL containing 1 mM EDTA and 5% sucrose, pH 7.5) using homogenizer in cold condition. • 3. Centrifuge the homogenized cerebellum at 18000 rpm (38000 g) for 15 min at 4° C. • 4. Resuspend the pellet in 5 ml 50 mM Tris-HCL containing 1 mM EDTA and keep it on ice for 30 min. • 5. Pass the membrane through insulin syringe to ensure uniform suspension. • 6. Centrifuge the membrane at 18000 rpm at 4° C. for 20 min. • 7. Reconstitute the pellet in 3 ml of GTPγS buffer and estimate the protein by BCA assay and store the membrane in aliquots of 1000 μg of protein. CB1 Agonist and Antagonist Activity Screening Assay
The test compounds were screened at a final concentration of 1 μM or 300 nM in the absence and presence of 1 μM of WIN 55, 212-2 in the same manner as described in the GTPγS binding assay.
An agonist will stimulate the GTPγS binding over the basal.
An inverse agonist will decrease the basal GTPγS binding and/or produce more than 100% inhibition of the agonist (WIN-55212-2) induced stimulation.
The percent stimulation of GTPγS binding by each test compound at 1 μM or 300 nM concentration in the absence and presence of 1 μM WIN 55, 212-2 was calculated by comparing it with basal specific bound (Basal binding—Non Specific binding) values.
(In general: Binding of GTPγS marks nucleotide exchange on a G protein.)

Series [2] deals with T1, CB1. The experiment in a line: Rat CB1 receptor binding using brain membrane, [3H]SR141716A displacement (Protocol I). The note with it: 1 h. The arrangement: CB1 receptor present in a rat brain membrane preparation; from tissue; host or cells: rat brain membrane; inhibition: dose or concentration left out as unconfirmed.
For a further series, the target named is hCB1 (Homo sapiens, UniProt P21554). The experiment in a line: In vitro binding assay using hCB1-CHO membranes, [3H]-CP-55,940 displacement (Protocol II). The arrangement: expressed in transfected cells; host or cells: CHO (hCB1-CHO, generated in-house). Here is the method:
II. Protocol for In Vitro Assay Using hCB1-CHO Membranes
The reaction was set up in a total volume of 200 μl in PEI (Poly(ethyleneimine)) (0.2%) precoated Millipore GFB (Glass Fibre-B) filter plates. 1 mM stocks of test compounds were prepared in DMSO and tested at a final concentration of 300 nM. The non-specific binding was determined by 0.5 μM CP-55, 940. […] The assay mixture (with or without the test compound) was incubated at 37° C. for 1 hour. The reaction was stopped by rapid filtration under vacuum and the radioactivity on the filters was measured by liquid scintillation counting.

Where [3] appears, read: hCB2-CHO membranes, [3H]-CP-55,940 displacement.
Setting [4] is: 1 h, GTPγS binding over basal, rat cerebellar membrane, tested at 1 uM, read-out: Per Se % Stimulation.
The mark [5] stands for this setting: GTPγS binding, tested at 1 uM in presence of 1 μM WIN 55,212-2, read-out: % Inhibition of WIN-55212-2 induced stimulation.
Where [6] appears, read: rat brain membrane, [3H]SR141716A displacement, read-out: % Displacement Protocol I.

hCB1, sequence (P21554 whole entry): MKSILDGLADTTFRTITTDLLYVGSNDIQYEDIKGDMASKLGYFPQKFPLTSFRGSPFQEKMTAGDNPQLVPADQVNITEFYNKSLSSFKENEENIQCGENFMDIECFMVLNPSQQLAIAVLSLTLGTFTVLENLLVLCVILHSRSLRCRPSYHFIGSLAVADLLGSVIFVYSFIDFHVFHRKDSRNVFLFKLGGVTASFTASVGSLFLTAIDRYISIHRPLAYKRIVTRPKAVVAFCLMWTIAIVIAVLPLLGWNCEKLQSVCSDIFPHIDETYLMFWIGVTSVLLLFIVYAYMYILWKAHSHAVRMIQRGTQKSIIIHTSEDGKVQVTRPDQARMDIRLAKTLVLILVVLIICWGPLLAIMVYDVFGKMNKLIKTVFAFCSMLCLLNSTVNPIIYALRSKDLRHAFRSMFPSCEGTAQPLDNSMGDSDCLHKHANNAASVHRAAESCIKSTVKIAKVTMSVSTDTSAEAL
T1 sequence (P20272 whole entry): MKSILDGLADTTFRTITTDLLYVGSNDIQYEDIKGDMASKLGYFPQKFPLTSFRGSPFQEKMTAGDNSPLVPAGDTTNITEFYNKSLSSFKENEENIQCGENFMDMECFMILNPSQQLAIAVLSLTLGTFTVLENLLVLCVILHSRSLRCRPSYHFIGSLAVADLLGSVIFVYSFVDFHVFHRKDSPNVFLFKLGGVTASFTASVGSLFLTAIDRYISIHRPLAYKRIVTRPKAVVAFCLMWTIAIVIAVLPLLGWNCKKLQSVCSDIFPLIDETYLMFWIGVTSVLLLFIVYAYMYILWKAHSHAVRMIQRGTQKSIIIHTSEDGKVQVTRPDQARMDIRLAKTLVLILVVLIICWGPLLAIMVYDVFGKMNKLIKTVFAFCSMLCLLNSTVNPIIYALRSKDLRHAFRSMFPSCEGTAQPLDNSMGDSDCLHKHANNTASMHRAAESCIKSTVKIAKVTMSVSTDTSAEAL
hCB2, sequence (P34972 whole entry): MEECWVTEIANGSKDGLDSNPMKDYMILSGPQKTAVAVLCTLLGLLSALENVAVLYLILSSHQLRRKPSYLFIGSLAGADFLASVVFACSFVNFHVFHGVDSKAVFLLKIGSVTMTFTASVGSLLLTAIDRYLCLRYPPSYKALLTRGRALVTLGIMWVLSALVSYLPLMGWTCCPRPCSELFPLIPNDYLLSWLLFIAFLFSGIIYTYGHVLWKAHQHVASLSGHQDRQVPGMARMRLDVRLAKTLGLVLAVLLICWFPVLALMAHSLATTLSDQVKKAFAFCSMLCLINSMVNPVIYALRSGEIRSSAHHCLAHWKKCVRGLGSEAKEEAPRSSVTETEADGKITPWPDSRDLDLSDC

For orientation: melting point means the temperature of the solid-liquid transition. Take `O=C(NCCc1ccccc1)c1nn(-c2ccc(Cl)cc2Cl)c2c1C1CC3CC(C1)CC2C3` [Example 178, N(7)-(2-Phenylethyl)-5-(2,4-dichlorophenyl)-5,6-diazatetracyclo[7.3.1.1^3,11.0^4,8]tetradeca-4(8),6-diene-7-carboxamide]: the melting point fell in the range of 63 to 66 °C. At hCB2 (setting [3]), the inhibition at 0.3 µM turned out to be 6.04%. Further, the activation at 1 µM at CB1 [1] (setting [4]) was -0.7%. For the same compound, at CB1 [1] (setting [5]), the inhibition at 1 µM is 88%. Further, the inhibition at CB1 [2] (setting [6]) stood at 47%.
`C[C@H](NC(=O)c1n[nH]c2c1C1(c3ccc(F)cc3F)CCC2C1)c1ccccc1` (stereo partly drawn) [Example 292, N(3)-[S-(1-Phenylethyl)]-4-(2,4-difluorophenyl)-4,5,6,7-tetrahydro-1H-4,7-methano-indazole-3-carboxamide]: the “% Displacement Protocol II” value on hCB1 worked out at 69.79%.
In the case of `Cc1ccc(-n2nc(C(=O)NCc3ccccc3Cl)c3c2C2CC4CC(CC3C4)C2)cc1` [Example 162, N(7)-(2-Chlorobenzyl)-5-(4-methylphenyl)-5,6-diazatetracyclo[7.3.1.1^3,11.0^4,8]tetradeca-4(8),6-diene-7-carboxamide], the melting point fell in the range of 127 to 130 °C. Moreover, the inhibition at 0.3 µM on hCB2 (setting [3]) came to 33.8%. The activation at 0.3 µM on CB1 [1] (1 h, GTPγS binding over basal, rat cerebellar membrane, tested at 300 nM, read-out: Per Se % Stimulation) is -29.2%. Moreover, the inhibition at 0.3 µM at CB1 [1] (GTPγS binding, tested at 300 nM in presence of 1 μM WIN 55,212-2, read-out: % Inhibition of WIN-55212-2 induced stimulation) came out at 72%. Moreover, the inhibition on CB1 [2] (setting [6]) amounted to 38.9%.
As to `O=C(NNc1cccc(F)c1)c1nn(-c2ccc(Cl)cc2)c2c1C1CCC2C1` (stereo not drawn) [Example 233, N(3)-[(3-Fluorophenyl)amino]-1-(4-chlorophenyl)-4,5,6,7-tetrahydro-1H-4,7-methano-indazole-3-carboxamide], the melting point was determined as 199 °C. Moreover, at hCB2 (setting [3]), the inhibition at 0.3 µM is 46.2%. Further, the activation at 1 µM on CB1 [1] (setting [4]) was -16.3%. The inhibition at 1 µM on CB1 [1] (setting [5]) worked out at 79.5%. Moreover, the inhibition on CB1 [2] (setting [6]) was 73.2%.
The like results for `O=C(NNc1ccccc1Cl)c1nn(-c2ccc(Cl)cc2)c2c1C1CC3CC(C1)CC2C3` [Example 123, N(7)-(2-Chlorophenylamino)-5-(4-chlorophenyl)-5,6-diazatetracyclo[7.3.1.1^3,11.0^4,8]tetradeca-4(8),6-diene-7-carboxamide] were, in that order, 155 °C, 47.6%, 13.5%, 99.1% and 89%.
On to `O=C(NNc1ccc(F)cc1F)c1nn(-c2ccc(Cl)cc2)c2c1C1CC3CC(C1)CC2C3` [Example 132, N(7)-(2,4-Difluorophenylamino]-5-(4-chlorophenyl)-5,6-diazatetracyclo[7.3.1.1^3,11.0^4,8]tetradeca-4(8),6-diene-7-carboxamide], for which the melting point fell in the range of 195 to 196 °C. Further, the inhibition at 0.3 µM at hCB2 (setting [3]) was found to be 3.94%. For the same compound, on CB1 [1] (setting [4]), the activation at 1 µM worked out at 7.2%. For the same compound, the inhibition at 1 µM on CB1 [1] (setting [5]) came to 89.2%. The inhibition at CB1 [2] (setting [6]) came to 64.5%.
Compound `Cl.O=C(NNc1ccc(F)cc1)c1nn(-c2ccc(Cl)cc2)c2c1C1CC3CC(C1)CC2C3` [Example 131, N(7)-(4-Fluorophenylamino)-5-(4-chlorophenyl)-5,6-diazatetracyclo[7.3.1.1^3,11.0^4,8]tetradeca-4(8),6-diene-7-carboxamide hydrochloride] gave a melting point of 175 °C. Also, the inhibition at 0.3 µM at hCB2 was 10.8%. The activation at 1 µM at CB1 [1] (setting [4]) is -1.7%. In addition, the inhibition at 1 µM on CB1 [1] (setting [5]) amounted to 86%. Further, at CB1 [2] (read-out: % Displacement Protocol I, rat brain membrane, [3H]SR141716A displacement), the inhibition was 85.2%.
Regarding `O=C(NNc1ccccc1Cl)c1nn(-c2ccc(F)cc2F)c2c1C1CCC2C1` (stereo not drawn) [Example 286, N(3)-[(2-Chlorophenyl)amino]-1-(2,4-difluorophenyl)-4,5,6,7-tetrahydro-H-4,7-methano-indazole-3-carboxamide], the “% Displacement Protocol II” value at hCB1 came out at 32.35%.
Take `O=C(NNc1ccccc1)c1nn(-c2ccc(Cl)cc2)c2c1C1CC3CC(C1)CC2C3` [Example 121, N(7)-(N′-phenylamino)-5-(4-chlorophenyl)-5,6-diazatetracyclo[7.3.1.1^3,11.0^4,8]tetradeca-4(8),6-diene-7-carboxamide]: the melting point lay within 103 to 105 °C. Besides, the inhibition at 0.3 µM on hCB2 (setting [3]) came to 29.8%. Moreover, at CB1 [1] (GTPγS binding over basal, rat cerebellar membrane, tested at 1 uM), the “Per Se % Stimulation” value came out at 16.0%. On CB1 [1] (GTPγS binding, tested at 1 uM in presence of 1 μM WIN 55,212-2), the “% Inhibition of WIN-55212-2 induced stimulation” value is listed as 81.3%. On CB1 [2] (setting [6]), the inhibition turned out to be 65.4%.
For `O=C(NCc1ccc(F)cc1)c1nn(-c2ccc(Cl)cc2Cl)c2c1C1CCC2C1` (stereo not drawn) [Example 246, N(3)-(4-Fluorobenzyl)-1-(2,4-dichlorophenyl)-4,5,6,7-tetrahydro-1H-4,7-methano-indazole-3-carboxamide], the melting point lay in the range of 106 to 108 °C. Besides, the inhibition at 0.3 µM on hCB2 (setting [3]) was found to be 30.4%. The activation at 1 µM at CB1 [1] (setting [4]) is 0.7%. Besides, the inhibition at 1 µM at CB1 [1] (setting [5]) stood at 98.9%. On CB1 [2] (setting [6]), the inhibition came to 46%.
For `O=C(NNc1ccccc1Cl)c1nn(-c2ccc(Cl)cc2Cl)c2c1C1CC3CC(C1)CC2C3` [Example 174, N(7)-(2-Chlorophenylamino)-5-(2,4-dichlorophenyl)-5,6-diazatetracyclo[7.3.1.1^3,11.0^4,8]tetradeca-4(8),6-diene-7-carboxamide], in that order: 110 °C, 22.5%, -20.8%, 75.5% and 76.4%.
Turning to `O=C(Nc1cccc(Cl)c1)c1nn(-c2ccc(Cl)cc2)c2c1C1CCC2C1` (stereo not drawn) [Example 215, N(3)-(3-Chorophenyl)-1-(4-chlorophenyl)-4,5,6,7-tetrahydro-1H-4,7-methano-indazole-3-carboxamide], the “% Displacement Protocol II” value on hCB1 was determined as 1.38%.

Source of the values: patent publication US7923465B2, “Cannabinoid receptor ligands, pharmaceutical compositions containing them, and process for their preparation” (priority 2005, dated 2011).
